According to publication PMC2583053, “snoRNA, a Novel Precursor of microRNA in Giardia lamblia” (PLoS Pathogens, 2008):

T1: GlAgo (Giardia Argonaute) (Giardia duodenalis, UniProt A8BCK6)
T1 construct: gene Ago; full-length ORF from Giardia genomic DNA in pET28b, His-tagged (C-terminal His6 encoded by reverse primer), expressed in E. coli BL21(DE3) with chaperones, Ni-NTA purified; strain WB is printed for the trophozoites used, not for the cloning DNA
T1 sequence (A8BCK6 1-900): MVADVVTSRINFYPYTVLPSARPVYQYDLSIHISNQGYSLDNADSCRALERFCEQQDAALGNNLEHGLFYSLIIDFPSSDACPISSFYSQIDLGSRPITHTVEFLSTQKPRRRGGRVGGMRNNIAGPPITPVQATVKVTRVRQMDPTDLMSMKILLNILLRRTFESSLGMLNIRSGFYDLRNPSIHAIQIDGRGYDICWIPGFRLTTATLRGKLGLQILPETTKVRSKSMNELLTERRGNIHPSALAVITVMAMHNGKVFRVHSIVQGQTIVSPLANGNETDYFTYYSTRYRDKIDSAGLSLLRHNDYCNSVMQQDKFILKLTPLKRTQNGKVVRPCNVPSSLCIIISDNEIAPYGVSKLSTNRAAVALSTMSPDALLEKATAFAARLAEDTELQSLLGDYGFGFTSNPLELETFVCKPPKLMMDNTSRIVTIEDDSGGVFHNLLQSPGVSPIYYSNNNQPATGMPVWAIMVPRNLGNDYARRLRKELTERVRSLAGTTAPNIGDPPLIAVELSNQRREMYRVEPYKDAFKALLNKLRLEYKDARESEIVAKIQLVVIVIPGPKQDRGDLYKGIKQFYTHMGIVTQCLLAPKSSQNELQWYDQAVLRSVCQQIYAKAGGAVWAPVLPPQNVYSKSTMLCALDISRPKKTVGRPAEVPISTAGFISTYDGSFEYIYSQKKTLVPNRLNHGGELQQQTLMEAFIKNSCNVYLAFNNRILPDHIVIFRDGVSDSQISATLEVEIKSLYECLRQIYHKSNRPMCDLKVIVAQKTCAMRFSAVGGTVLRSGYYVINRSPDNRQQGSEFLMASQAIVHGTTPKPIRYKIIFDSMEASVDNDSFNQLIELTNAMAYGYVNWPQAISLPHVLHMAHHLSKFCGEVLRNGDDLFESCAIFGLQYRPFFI

T2: GlAgo (Giardia Argonaute) (Giardia lamblia, UniProt A8BCK6 1-900)
T2 sequence: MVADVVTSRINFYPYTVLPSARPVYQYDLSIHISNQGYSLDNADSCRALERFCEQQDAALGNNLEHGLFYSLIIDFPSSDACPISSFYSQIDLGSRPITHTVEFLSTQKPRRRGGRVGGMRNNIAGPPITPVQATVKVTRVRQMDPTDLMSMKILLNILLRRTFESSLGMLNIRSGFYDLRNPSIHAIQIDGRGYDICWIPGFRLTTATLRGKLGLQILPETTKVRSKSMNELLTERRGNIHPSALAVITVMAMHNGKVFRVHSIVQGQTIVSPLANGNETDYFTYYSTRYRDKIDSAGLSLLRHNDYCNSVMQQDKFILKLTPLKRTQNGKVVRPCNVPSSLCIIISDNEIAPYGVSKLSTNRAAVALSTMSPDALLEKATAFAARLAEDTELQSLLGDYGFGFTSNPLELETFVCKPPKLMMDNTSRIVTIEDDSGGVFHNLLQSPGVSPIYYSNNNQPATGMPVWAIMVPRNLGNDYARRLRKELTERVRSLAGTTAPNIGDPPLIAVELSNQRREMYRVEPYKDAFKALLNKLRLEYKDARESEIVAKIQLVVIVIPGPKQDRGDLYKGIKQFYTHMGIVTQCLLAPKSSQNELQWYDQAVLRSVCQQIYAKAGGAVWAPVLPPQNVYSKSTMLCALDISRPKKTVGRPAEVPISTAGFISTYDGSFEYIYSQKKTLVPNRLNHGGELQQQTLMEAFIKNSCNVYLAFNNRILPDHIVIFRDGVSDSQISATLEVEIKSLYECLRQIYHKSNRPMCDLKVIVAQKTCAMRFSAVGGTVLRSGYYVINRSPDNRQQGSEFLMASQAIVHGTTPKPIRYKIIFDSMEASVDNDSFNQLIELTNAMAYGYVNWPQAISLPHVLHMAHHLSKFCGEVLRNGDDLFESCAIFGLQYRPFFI


What was measured:
[1] = molecular target: T1, GlAgo (Giardia Argonaute); test: m7GpppG-Sepharose affinity retention, elution with free m7GpppG, anti-His Western blot; format: binding; conditions: 20 mM HEPES pH 7.4, 150 mM KCl, 1 mM EDTA, 2 mM DTT; washed with 0.1 mM GTP, eluted with 0.1 mM m7GpppG
[2] = molecular target: T2, GlAgo (Giardia Argonaute); test: EMSA; 10 ng miR2; competed by unlabeled miR2 and by yeast RNA (no sequence specificity); EMSA: native 6% polyacrylamide gel, 10 ng radiolabeled miR2; binding buffer, pH and temperature not given in the material; conditions: protein: recombinant; tags: C-terminal 6xHis (encoded in reverse primer S6); single strand

Molecule | m7GpppG-Sepharose affinity retention, elution with free m7GpppG, anti-His Wester [1] | binding result [2]
C[n+]1cn([C@@H]2O[C@H](COP(=O)(O)OP(=O)(O)OP(=O)(O)OC[C@H]3O[C@@H](n4cnc5c(=O)[nH]c(N)nc54)[C@H](O)[C@@H]3O)[C@@H](O)[C@H]2O)c2nc(N)[nH]c(=O)c21 [m^7GpppG] | the protein was specifically eluted off the Sepharose beads with m^7GpppG | 
CAGCCUAAUCACCGCCCCUAUAGUCC (ssRNA) [miR2] |  | binds
